From patent publication US20240049706A1, “COMPOSITIONS AND METHODS FOR CONTROLLING INSECTS” (priority 2020, published 2024) come the findings set out here.

For data set [1] the following is noted: 7 days, 20 mg/mL.
Excerpt: One replicate of each EO per treatment was collected daily and tested for EO content. Results were reported as concentration of EO as function of time for each stability condition.
Data set [2] is described as follows: Loading (encapsulation) efficacy of essential oils into AgriCell, UV-Vis after ethanol extraction. In kind it is physicochemical. Conditions: EO encapsulated into AgriCell; original concentration of EO 200 mg/mL. The procedure:
After […] are purified, the concentrated […] paste or dry lyophilized powder is loaded with EOs. If dry, the […] are first homogenized into a finer powder through mechanical homogenization. A stock solution from each EO is prepared in ethanol at 100 mg/mL-200 mg/mL. Lyophilized […] would then be suspended in a solution with the EO solution at a ratio of 1 g of dry […] to 10 mL of EO solution. Once resuspended, the ethanol is allowed to evaporate overnight, leaving behind EO encapsulated […] in the process. After this overnight period, encapsulated […] are removed from the beaker, and the EO-encapsulated […] powder is mechanically homogenized. This encapsulated product is ready for resuspension in its appropriate medium.

The conditions of data set [3]: 20 mg/mL; for percentage existing / remaining (not damaged) after autoxidation: 168 h; for percentage degraded by autoxidation: 7 days.
Excerpt: Results were reported as concentration of EO as function of time for each stability condition.

Turning to `Cc1ccc(C(C)C)c(O)c1` [free thymol, thymol], the “percentage of degradation (thermal)” value in data set [1] turned out to be 79.1%. The encapsulation efficacy in data set [2] amounted to 91.8%. In data set [3], the “percentage existing / remaining (not damaged) after autoxidation” value was 44.2% and the “percentage degraded by autoxidation” value was found to be 55.8%.

For `C=CCc1ccc(O)c(OC)c1` [free eugenol, Eugenol], the “percentage of degradation (thermal)” value in data set [1] is 82.7%. Further, the encapsulation efficacy in data set [2] is 95.5%. In data set [3], the “percentage existing / remaining (not damaged) after autoxidation” value is listed as 17.3% and the “percentage degraded by autoxidation” value is given as 82.7%.
